# Test results published in ChEMBL document CHEMBL5053528, “Discovery of 2-(Ortho-Substituted Benzyl)-Indole Derivatives as Potent and Orally Bioavailable RORγ Agonists with Antitumor Activity” (J Med Chem, 2021).
# Columns and labels:
# [1] = target: T1, Nuclear receptor ROR-gamma (Homo sapiens) (UniProt P51449); experiment: Partial agonist activity at human RORgamma in cytostim stimulated human PBMC cells assessed as increase in IL-17 production by measuring maximal efficacy preincubated with cytostim for 72 hrs by ELISA relative to control; format: cell-based; conditions: filed as partial agonist
# T1 sequence (whole entry): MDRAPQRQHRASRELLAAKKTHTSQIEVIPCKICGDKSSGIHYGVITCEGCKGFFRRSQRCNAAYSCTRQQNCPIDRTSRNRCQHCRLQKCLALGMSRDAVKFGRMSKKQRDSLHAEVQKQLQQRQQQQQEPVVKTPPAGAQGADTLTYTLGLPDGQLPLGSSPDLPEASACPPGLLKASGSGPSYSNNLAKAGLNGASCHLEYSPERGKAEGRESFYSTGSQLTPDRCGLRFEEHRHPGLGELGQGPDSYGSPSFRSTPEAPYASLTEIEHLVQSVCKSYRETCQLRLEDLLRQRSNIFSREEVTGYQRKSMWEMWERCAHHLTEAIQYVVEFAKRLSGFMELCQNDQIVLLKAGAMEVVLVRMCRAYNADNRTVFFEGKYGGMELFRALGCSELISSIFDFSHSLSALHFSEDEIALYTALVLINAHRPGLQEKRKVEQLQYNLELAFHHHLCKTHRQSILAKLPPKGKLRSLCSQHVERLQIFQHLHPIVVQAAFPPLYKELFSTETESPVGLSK
# [2] = Microsomal stability in human liver microsomes assessed as half life; format: ADME, Microsome
# [3] = target: T2, Nuclear receptor ROR-gamma (Homo sapiens, UniProt P51449); experiment: Agonist activity at N-terminal GST tagged human RORgamma LBD using fluorescein-D22 as coactivator incubated for 60 mins by Lanthascreen TR-FRET assay
# T2 sequence (P51449 whole entry): T1 sequence (whole entry)
# [4] = target: T2, Nuclear receptor ROR-gamma; experiment: Partial agonist activity at human RORgamma in cytostim stimulated human PBMC cells assessed as […] in differentiation of TH17 cells by measuring IL-17 production preincubated with cytostim for 72 hrs by ELISA; format: cell-based
# [5] = Microsomal stability in rat liver microsomes assessed as half life; format: ADME, Microsome
# [6] = AUC (0 to t) in dog at 0.5 mg/kg, iv; format: ADME, organism-based, Canis lupus familiaris; parameters: dose 0.5 mg/kg, route iv; conditions: in vivo
# [7] = AUC (0 to t) in rat at 1 mg/kg, iv; format: ADME, organism-based; parameters: dose 1 mg/kg, route iv; conditions: in vivo
# [8] = system: Mus musculus; experiment: Toxicity in C57BL/6 mouse infected with mouse MC38 cells assessed as change in body weight at 10 mg/kg, po administered once daily for 25 days and measured twice a week; format: organism-based, MC-38; conditions: in vivo, 600 h, time 25 day
# [9] = Effects of compound in IL-17 production in CD3/CD28-stimulated C57BL/6 mouse tumor lymphocytes assessed as increase in IL-17 production at 10 mg/kg in combination with anti-mouse PD1 monoclonal antibody at 5 mg/kg by ELISA (Rvb= 29 +/- 9 pg/ml); format: functional, Lymphocyte
# [10] = Half life in dog at 0.5 mg/kg, iv; format: ADME, organism-based, Canis lupus familiaris; conditions: in vivo
# [11] = Cmax in dog at 2 mg/kg, po; format: ADME, organism-based, Canis lupus familiaris; parameters: dose 2 mg/kg, route po; conditions: in vivo
# [12] = Drug exposure in tumor of C57BL/6 mouse injected with mouse MC38 cells at 10 mg/kg, po measured 3 hrs post dose on day 25 in combination with anti-mouse PD1 monoclonal antibody at 5 mg/kg, ip by LC/MS analysis; format: ADME, organism-based, Neoplasm, MC-38; conditions: time 25 day, read-out: Drug uptake
# [13] = Volume of distribution in dog at 0.5 mg/kg, iv; format: ADME, organism-based, Canis lupus familiaris; conditions: in vivo
# [14] = Clearance in dog at 0.5 mg/kg, iv; format: ADME, organism-based, Canis lupus familiaris; conditions: in vivo
# [15] = Oral bioavailability in mouse; format: ADME, organism-based; conditions: in vivo
# [16] = Oral bioavailability in dog; format: ADME, organism-based, Canis lupus familiaris; conditions: in vivo
# [17] = Half life in mouse at 2 mg/kg, po; format: ADME, organism-based; conditions: in vivo
# [18] = system: MC-38; experiment: Antitumor activity against mouse MC38 cells injected C57BL/6 mouse syngenic model assessed as tumor growth inhibition at 10 mg/kg, po administered once daily for 25 days in combination with anti-mouse PD-1 monoclonal antibody at 5 mg/kg, ip relative to control; format: functional; conditions: C57BL/6, MC-38, 600 h, time 25 day, read-out: TGI
# [19] = AUC (0 to t) in mouse at 2 mg/kg, po; format: ADME, organism-based; parameters: dose 2 mg/kg, route po; conditions: in vivo
# [20] = Clearance in rat at 1 mg/kg, iv; format: ADME, organism-based; conditions: in vivo
# [21] = Volume of distribution in dog at 2 mg/kg, po; format: ADME, organism-based, Canis lupus familiaris; conditions: in vivo
# [22] = Half life in mouse at 1 mg/kg, iv; format: ADME, organism-based; conditions: in vivo
# [23] = Half life in rat at 2 mg/kg, po; format: ADME, organism-based; conditions: in vivo
# [24] = Volume of distribution in rat at 1 mg/kg, iv; format: ADME, organism-based; conditions: in vivo
# [25] = Half life in dog at 2 mg/kg, po; format: ADME, organism-based, Canis lupus familiaris; conditions: in vivo
# [26] = Drug exposure in tumor of C57BL/6 mouse injected with mouse MC38 cells at 10 mg/kg, po measured 3 hrs post dose on day 25 by LC/MS analysis; format: ADME, organism-based, Neoplasm, MC-38; conditions: time 25 day, read-out: Drug uptake
# [27] = Drug exposure in plasma of C57BL/6 mouse injected with mouse MC38 cells at 10 mg/kg, po measured 3 hrs post dose on day 25 in combination with anti-mouse PD1 monoclonal antibody at 5 mg/kg, ip by LC/MS analysis; format: ADME, organism-based, MC-38; conditions: time 25 day
# [28] = Effects of compound in IL-17 production in CD3/CD28-stimulated C57BL/6 mouse tumor lymphocytes assessed as increase in IL-17 production at 10 mg/kg by ELISA (Rvb= 19 +/- 5 pg/ml); format: functional, Lymphocyte
# [29] = Volume of distribution in rat at 2 mg/kg, po; format: ADME, organism-based; conditions: in vivo
# [30] = Volume of distribution in mouse at 1 mg/kg, iv; format: ADME, organism-based; conditions: in vivo
# [31] = Oral bioavailability in rat; format: ADME, organism-based; conditions: in vivo
# [32] = Volume of distribution in mouse at 2 mg/kg, po; format: ADME, organism-based; conditions: in vivo
# [33] = system: Mus musculus; experiment: Toxicity in C57BL/6 mouse injected with mouse MC38 cells assessed as change in body weight at 10 mg/kg, po administered once daily for 25 days in combination with anti-mouse-PD1 monoclonal antibody at 5 mg/kg, ip and measured twice a week; format: organism-based, MC-38; conditions: in vivo, 600 h, time 25 day
# [34] = Half life in rat at 1 mg/kg, iv; format: ADME, organism-based; conditions: in vivo
# [35] = Drug exposure in plasma of C57BL/6 mouse injected with mouse MC38 cells at 10 mg/kg, po measured 3 hrs post dose on day 25 by LC/MS analysis; format: ADME, organism-based, MC-38; conditions: time 25 day
# [36] = AUC (0 to t) in mouse at 1 mg/kg, iv; format: ADME, organism-based; parameters: dose 1 mg/kg, route iv; conditions: in vivo
# [37] = Effects of compound in IFNgamma production in CD3/CD28-stimulated C57BL/6 mouse tumor lymphocytes assessed as increase in IFNgamma production at 10 mg/kg in combination with anti-mouse PD1 monoclonal antibody at 5 mg/kg by ELISA (Rvb= 1467 +/- 878 pg/ml); format: functional, Lymphocyte
# [38] = AUC (0 to t) in rat at 2 mg/kg, po; format: ADME, organism-based; parameters: dose 2 mg/kg, route po; conditions: in vivo
# [39] = system: MC-38; experiment: Antitumor activity against mouse MC38 cells injected C57BL/6 mouse syngenic model assessed as tumor growth inhibition at 10 mg/kg, po administered once daily for 25 days relative to control; format: functional; conditions: C57BL/6, MC-38, 600 h, time 25 day, read-out: TGI
# [40] = AUC (0 to t) in dog at 2 mg/kg, po; format: ADME, organism-based, Canis lupus familiaris; parameters: dose 2 mg/kg, route po; conditions: in vivo
# [41] = Cmax in mouse at 2 mg/kg, po; format: ADME, organism-based; parameters: dose 2 mg/kg, route po; conditions: in vivo
# [42] = Effects of compound in IFNgamma production in CD3/CD28-stimulated C57BL/6 mouse tumor lymphocytes assessed as increase in IFNgamma production at 10 mg/kg by ELISA (Rvb= 262 +/- 81 pg/ml); format: functional, Lymphocyte
# [43] = Cmax in rat at 2 mg/kg, po; format: ADME, organism-based; parameters: dose 2 mg/kg, route po; conditions: in vivo
# [44] = Drug metabolism in rat liver microsomes assessed as amide hydrolysis metabolite formation at 1 mg/kg, iv; format: ADME, Microsome
# [45] = Drug metabolism in dog liver microsomes assessed as amide hydrolysis metabolite formation at 1 mg/kg, iv; format: ADME, Canis lupus familiaris, Microsome
# [46] = Clearance in mouse at 1 mg/kg, iv; format: ADME, organism-based; conditions: in vivo
# [47] = Drug metabolism in rat plasma assessed as amide hydrolysis metabolite formation at 1 mg/kg, iv; format: ADME, organism-based; conditions: in vivo
# [48] = target: T2, Nuclear receptor ROR-gamma; experiment: Agonist activity at human RORgamma in cytostim stimulated human PBMC cells assessed as increase in differentiation of TH17 cells by measuring IL-17 production preincubated with cytostim for 72 hrs by ELISA; format: cell-based
# [49] = Drug metabolism in dog plasma assessed as amide hydrolysis metabolite formation at 1 mg/kg, iv; format: ADME, organism-based, Canis lupus familiaris; conditions: in vivo
structure (smiles),measurement,setting,value
CCc1ccccc1Cc1cc2cc(C(=O)NCc3ccc(S(=O)(=O)CC)cc3)ccc2n1C(C)C,Emax,[1],79%
same,half-life,[2],0.217 h
same,EC50,[3],25 nM
same,EC50,[4],2 nM
same,half-life,[5],0.2 h
CCS(=O)(=O)c1ccc([C@H](CO)NC(=O)c2ccc3c(c2)cc(Cc2ccc(Cl)cc2C(F)(F)F)n3CCF)cc1,AUC(0-t),[6],8640 ng·h/mL
same,AUC(0-t),[7],1050 ng·h/mL
same,Activity,[8],Non-Toxic
same,Activity,[9],81 pg/mL
same,half-life,[10],8.8 h
same,Cmax,[11],2080 ng/mL
same,concentration at 600 h,[12],2320 ng/mL
same,Vd,[13],0.654 L/kg
same,clearance,[14],0.954 mL/min/kg
same,bioavailability,[15],31.7%
same,bioavailability,[16],84.2%
same,half-life,[17],11.2 h
same,inhibition in vivo at 10 mg/kg,[18],62%
same,AUC(0-t),[19],50600 ng·h/mL
same,clearance,[20],16.2 mL/min/kg
same,Vd,[21],0.873 L/kg
same,t1/2,"[22]; iv, 1 mg/kg",5.04 h
same,half-life,[23],5.96 h
same,Vd,[24],3.65 L/kg
same,half-life,[25],11.8 h
same,concentration at 600 h,[26],2020 ng/mL
same,concentration at 600 h,[27],10800 ng/mL
same,Activity,[28],36 pg/mL
same,Vd,[29],25.7 L/kg
same,Vd,"[30]; iv, 1 mg/kg",0.877 L/kg
same,bioavailability,[31],29.4%
same,Vd,[32],0.637 L/kg
same,Activity,[33],Non-Toxic
same,half-life,[34],2.67 h
same,concentration at 600 h,[35],9120 ng/mL
same,AUC(0-t),[36],79800 ng·h/mL
same,Activity,[37],2455 pg/mL
same,AUC(0-t),[38],618 ng·h/mL
same,inhibition in vivo at 10 mg/kg,[39],37%
same,AUC(0-t),[40],29100 ng·h/mL
same,Cmax,[41],3660 ng/mL
same,Activity,[42],1217 pg/mL
same,Cmax,[43],55.7 ng/mL
CCS(=O)(=O)c1ccc(CNC(=O)c2ccc3c(c2)cc(Cc2ccc(Cl)cc2C(F)(F)F)n3CCF)cc1,Drug metabolism,[44],Metabolite_Detected
same,AUC(0-t),[6],309 ng·h/mL
same,AUC(0-t),[7],277 ng·h/mL
same,half-life,[10],0.876 h
same,Cmax,[11],55.9 ng/mL
same,Vd,[13],2.05 L/kg
same,clearance,[14],27.2 mL/min/kg
same,bioavailability,[15],47.3%
same,bioavailability,[16],8.33%
same,half-life,[17],3.72 h
same,Drug metabolism,[45],Metabolite_Detected
same,AUC(0-t),[19],18900 ng·h/mL
same,clearance,[46],0.834 mL/min/kg
same,clearance,[20],60.2 mL/min/kg
same,Vd,[21],73.7 L/kg
same,half-life,[22],2.67 h
same,Vd,[24],4.48 L/kg
same,half-life,[25],2.14 h
same,Drug metabolism,[47],Metabolite_Detected
same,half-life,[2],2.88 h
same,Vd,[30]; read-out: Vd,0.193 L/kg
same,bioavailability,[31],0.673%
same,EC50,[48],2 nM
same,EC50,[3],2 nM
same,Vd,[32],0.569 L/kg
same,half-life,[34],0.86 h
same,AUC(0-t),[36],20000 ng·h/mL
same,AUC(0-t),[38],3.73 ng·h/mL
same,AUC(0-t),[40],103 ng·h/mL
same,Cmax,[41],3270 ng/mL
same,Drug metabolism,[49],Metabolite_Detected
same,half-life,[5],2.1 h
same,Cmax,[43],6.4 ng/mL
